The values that follow come from patent US11299493B2, “Heterocyclic compounds and uses thereof” (NUVATION BIO INC., priority 2017, dated 2022).

Like-named read-outs stand apart in the source and are kept apart here.

Assay [1] relates to A427 cells. In words: Cytotoxicity assay (resazurin) in A427 cells. It is filed as cell-based. Conditions: read-out: Cell Viability IC50 A427. On the procedure:
Cells were allowed to grow at 37° C. for 24 hr in 5% CO2 environment (culture conditions) in a Nuaire incubator (humidified). Serially diluted test compounds (100 μL) within the desired testing concentration ranges were added to the culture plate were further incubated in culture conditions for 72 hr and 96 hr for A427 and A549 respectively. The experiment was terminated at the designated incubation time by replacing the medium with 100 μL of 1 mM of resazurin (R7017; Sigma) prepared in respective culture medium, and the plates were further incubated in culture conditions for 4-6 hr. Fluorescence was recorded using a multimodal plate reader (Biotek Synergy Neo) at an excitation wavelength of 535 nm and emission wavelength of 590 nm to obtain relative fluorescence units. Data analysis was done by subtracting the background fluorescence (only medium blank) value from each reading and then normalizing with the vehicle control (DMSO treated cells) to obtain percent survival/proliferation. Percent survival was then subtracted by 100 to get the percent inhibition of proliferation which was used to calculate IC50 values.
Background: Alamar Blue is a resazurin reagent that responds to reducing activity.

The target in assay [2] is WEE1 kinase enzyme (Homo sapiens (Human), UniProt P30291). As to the kind of experiment: WEE1 IC50 determination, LanthaScreen Terbium Labeled TR-FRET kinase assay. Format: biochemical. Conditions: WEE1 enzyme 1 nM, ATP 10 μM, 1 h. On the procedure:
IC50 values of compounds against WEE1 kinase enzyme were determined by LanthaScreen™ Terbium Labeled TR-FRET assay. […] After 1 h, […] stop solution containing Terbium labeled antibody (4 nM) (#PV3529, Invitrogen, Life Technologies Grand Island, N.Y.) and EDTA (#E5134, Sigma, St-Louis, Mo.) (20 mM) in TR-FRET dilution buffer (#PV3574, Invitrogen, Life Technologies Grand Island, N.Y.) was added. Readings were taken in a Synergy Neo Plate reader (BioTek, Winooski) at single excitation of 340 nm and Dual emission at 495 nm and 520 nm respectively.
The % activity of test samples was calculated as (Sample−Min)*100/(Max−Min). [Max: DMSO control, complete reaction with enzyme & DMSO and Min: No enzyme & DMSO].

The mark [3] stands for this setting: Homo sapiens, A-427, 72 h, A427, 72 hr.

Sequence of WEE1 kinase enzyme (P30291 whole entry): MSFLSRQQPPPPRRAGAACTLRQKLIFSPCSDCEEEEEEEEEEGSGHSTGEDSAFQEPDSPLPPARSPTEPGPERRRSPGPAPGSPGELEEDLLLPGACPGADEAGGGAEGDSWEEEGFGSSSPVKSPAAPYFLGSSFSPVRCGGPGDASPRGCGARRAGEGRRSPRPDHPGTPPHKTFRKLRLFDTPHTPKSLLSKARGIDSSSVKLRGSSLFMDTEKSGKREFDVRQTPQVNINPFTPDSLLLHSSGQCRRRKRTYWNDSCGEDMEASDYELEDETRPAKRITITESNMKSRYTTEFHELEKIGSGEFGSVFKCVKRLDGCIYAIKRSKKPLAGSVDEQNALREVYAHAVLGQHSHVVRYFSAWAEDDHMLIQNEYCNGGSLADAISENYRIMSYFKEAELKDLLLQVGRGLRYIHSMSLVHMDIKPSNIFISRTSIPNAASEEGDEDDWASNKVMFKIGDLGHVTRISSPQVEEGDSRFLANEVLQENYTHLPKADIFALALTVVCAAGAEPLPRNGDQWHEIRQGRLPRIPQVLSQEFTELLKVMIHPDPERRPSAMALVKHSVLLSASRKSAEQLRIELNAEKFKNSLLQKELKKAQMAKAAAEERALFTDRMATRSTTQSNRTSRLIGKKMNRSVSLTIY

The IC50 is the point on the concentration scale where inhibition reaches its midpoint. Regarding `CCn1c(=O)c2cnc(Nc3ccc4c(c3)CNCC4)nc2n1-c1cccc(OC)n1` [Example 1.18], the IC50 in assay [1] (setting [3]) was found to be 7060 nM; in assay [2], 25 nM.
Consider `CCn1c(=O)c2cnc(Nc3ccc4c(c3)CCNC4)nc2n1-c1cccc(OC)n1` [Example 1.23], for which the IC50 in assay [1] (setting [3]) stood at 3210 nM; in assay [2] it was 40 nM.
As to `CC(C)(O)c1cccc(-n2c3nc(Nc4ccc5c(c4)CCNC5)ncc3c(=O)n2C2CC2)n1` [Example 1.24], the IC50 amounted to 6030 nM in assay [1] (setting [3]) and 23 nM in assay [2].
`CCn1c(=O)c2cnc(Nc3ccc4c(c3)CNCC4)nc2n1-c1cccc(C(=O)NC)n1` [Example 1.25]: the IC50 in assay [1] (setting [3]) was above 30000 nM; in assay [2] it was 99 nM.
As for `CCn1c(=O)c2cnc(Nc3ccc4c(c3)CNCC4)nc2n1-c1cccc(NC)n1` [Example 1.27], the IC50 in assay [1] (setting [3]) amounted to 4140 nM; in assay [2], 10 nM.
`CCn1c(=O)c2cnc(Nc3ccc4c(c3)CNCC4)nc2n1-c1cccc(N2CCCC2=O)n1` [Example 1.31]: the IC50 came to 1320 nM in assay [1] (setting [3]) and 5 nM in assay [2].
The corresponding values for `CCn1c(=O)c2cnc(Nc3ccc4c(c3)CNCC4)nc2n1-c1cccc(C(F)(F)F)n1` [Example 1.41] are 5120 nM and 44 nM.
Take `CCn1c(=O)c2cnc(Nc3ccc4c(c3)CNCC4)nc2n1-c1cccc(NC(C)=O)n1` [Example 1.47]: the figures for the IC50 in assay [1] (setting [3]) and in assay [2] were 3020 nM and 5 nM, respectively.
As for `CC(C)n1c(=O)c2cnc(Nc3ccc4c(c3)CCNC4)nc2n1-c1cccc(C(C)(C)O)n1` [Example 1.69], the IC50 turned out to be 485 nM in assay [1] (setting [3]) and 11 nM in assay [2].
The corresponding values for `CCn1c(=O)c2cnc(Nc3ccc4c(c3)CNCC43CC3)nc2n1-c1cccc(C(C)(C)O)n1` [Example 1.70] are 640 nM and 15 nM.
In the case of `CCn1c(=O)c2cnc(Nc3cccc4c3CCNC4)nc2n1-c1cccc(C(C)(C)O)n1` [Example 1.125], the IC50 in assay [1] (setting [3]) is above 30000 nM; in assay [2] it was above 5000 nM.
The matching figures for `CCn1c(=O)c2cnc(Nc3ccc4c(c3)CNCC4)nc2n1-c1cccc(C(C)(C)C)n1` [Example 1.126]: 275 nM and below 1 nM.
With `CCn1c(=O)c2cnc(Nc3cnc4c(c3)CNCC4)nc2n1-c1cccc(C(C)(C)O)n1` [Example 1.127], the IC50 was above 23000 nM in assay [1] (setting [3]) and 58 nM in assay [2].
For the compound `CCn1c(=O)c2cnc(Nc3ccc4c(c3)CN(CCO)CC4)nc2n1-c1cccc(C(C)(C)O)n1` [Example 1.128], the IC50 worked out at 1550 nM in assay [1] (setting [3]) and 6 nM in assay [2].
With `CCn1c(=O)c2cnc(Nc3ccc4c(c3)CN(CC(=O)N(C)C)CC4)nc2n1-c1cccc(C(C)(C)O)n1` [Example 1.129], the IC50 in assay [1] (setting [3]) worked out at 865 nM; in assay [2] it was 6 nM.
For `CCn1c(=O)c2cnc(Nc3ccc4c(c3)CNCC4)nc2n1-c1ccccn1` [Example 1.130], the IC50 was 9070 nM in assay [1] (setting [3]) and 18 nM in assay [2].
As for `CCn1c(=O)c2cnc(Nc3ccc4c(c3)CCNC4)nc2n1-c1cccc(C(C)(C)C)n1` [Example 1.131], the results for the IC50 in assay [1] (setting [3]) and in assay [2] were 285 nM and 0.6 nM, respectively.
`CCn1c(=O)c2cnc(Nc3ccc4c(c3)CNC4)nc2n1-c1cccc(C(C)(C)O)n1` [Example 1.132]: the IC50 was found to be 1680 nM in assay [1] (Homo sapiens, A-427, A427, 72 hr) and 4 nM in assay [2].
Regarding `CCn1c(=O)c2cnc(Nc3ccc4c(c3)CC(N(C)C)C4)nc2n1-c1cccc(C(C)(C)O)n1` (centres unmarked) [Example 1.133], the values for the 50% inhibitory concentration (IC50) in assay [1] (setting [3]) and in assay [2] were 583 nM and 6 nM, respectively.
Regarding `CCn1c(=O)c2cnc(Nc3ccc4c(c3)CNCC4)nc2n1-c1ccnc(C(C)(C)C)c1` [Example 1.134], the figures for the IC50 in assay [1] (setting [3]) and in assay [2] were 820 nM and 9 nM, respectively.
Take `CCn1c(=O)c2cnc(Nc3ccc4c(c3)CC(N(C)C)CC4)nc2n1-c1cccc(C(C)(C)O)n1` (centres unmarked) [Example 1.135]: the figures for the IC50 in assay [1] (setting [3]) and in assay [2] were 440 nM and 20 nM, respectively.
On to `CCn1c(=O)c2cnc(Nc3ccc4c(c3)CCNC4)nc2n1-c1ccnc(C(C)(C)C)c1` [Example 1.136], for which the IC50 in assay [1] (setting [3]) is 1090 nM; in assay [2], 7 nM.
In the case of `CC(C)n1c(=O)c2cnc(Nc3ccc4c(c3)CNCC4)nc2n1-c1ccnc(C(C)(C)C)c1` [Example 1.137], the IC50 worked out at 415 nM in assay [1] (setting [3]) and 4 nM in assay [2].
On to `CC(C)n1c(=O)c2cnc(Nc3ccc4c(c3)CNCC4)nc2n1-c1cccc(C(C)(C)F)n1` [Example 1.139], for which the IC50 in assay [1] (setting [3]) was 355 nM; in assay [2], 4 nM.
The matching figures for `CCn1c(=O)c2cnc(Nc3cnc4c(c3)CNCC4)nc2n1-c1cccc(C(C)(C)C)n1` [Example 1.141]: 2970 nM and 24 nM.
For `CCn1c(=O)c2cnc(Nc3ccc4c(c3)CNC4)nc2n1-c1cccc(C(C)(C)C)n1` [Example 1.142], the IC50 in assay [1] (setting [3]) came out at 390 nM; in assay [2], 4 nM.
Turning to `CC(C)n1c(=O)c2cnc(Nc3ccc4c(c3)CNCC4)nc2n1-c1cccc(C(C)(C)C)n1` [Example 1.144], the IC50 in assay [1] (setting [3]) worked out at 260 nM; in assay [2], 0.6 nM.
On to `CC(C)n1c(=O)c2cnc(Nc3ccc4c(c3)CCNC4)nc2n1-c1cccc(C(C)(C)C)n1` [Example 1.145], for which the IC50 came to 255 nM in assay [1] (setting [3]) and 3 nM in assay [2].
Regarding `CC(C)(C)c1cccc(-n2c3nc(Nc4ccc5c(c4)CCNC5)ncc3c(=O)n2C2CC2)n1` [Example 1.147], the IC50 in assay [1] (A427, 72 hr) was found to be 370 nM; in assay [2], 7 nM.
On to `CC(C)n1c(=O)c2cnc(Nc3ccc4c(c3)CNCC4)nc2n1-c1cccc(C2CC2)n1` [Example 1.148], for which the IC50 in assay [1] (setting [3]) is 1080 nM; in assay [2] it was 2 nM.
On to `CC(C)n1c(=O)c2cnc(Nc3ccc4c(c3)CCNC4)nc2n1-c1cccc(C2CC2)n1` [Example 1.149], for which the IC50 in assay [1] (setting [3]) stood at 1130 nM; in assay [2], 3 nM.
In the case of `CC(n1c(=O)c2cnc(Nc3ccc4c(c3)CNCC4)nc2n1-c1cccc(C(C)(C)C)n1)C(F)(F)F` (centres unmarked) [Example 1.150], the figures for the IC50 in assay [1] (setting [3]) and in assay [2] were 3000 nM and 13 nM, respectively.
Take `CC(C)(C)c1cccc(-n2c3nc(Nc4ccc5c(c4)CNCC5)ncc3c(=O)n2C(C)(C)C)n1` [Example 1.151]: the figures for the IC50 in assay [1] (setting [3]) and in assay [2] were 3380 nM and 2540 nM, respectively.
In the case of `CC(C)(C)c1cccc(-n2c3nc(Nc4ccc5c(c4)CNCC5)ncc3c(=O)n2CC(F)(F)F)n1` [Example 1.152], the figures for the IC50 in assay [1] (setting [3]) and in assay [2] were 1020 nM and below 1 nM, respectively.
Regarding `CC(CO)n1c(=O)c2cnc(Nc3ccc4c(c3)CNCC4)nc2n1-c1cccc(C(C)(C)C)n1` (centres unmarked) [Example 1.153], the IC50 came to 2540 nM in assay [1] (setting [3]) and 16 nM in assay [2].
The corresponding values for `COCCn1c(=O)c2cnc(Nc3ccc4c(c3)CNCC4)nc2n1-c1cccc(C(C)(C)C)n1` [Example 1.154] are 2370 nM and 8 nM.
Regarding `CC(C)n1c(=O)c2cnc(Nc3ccc4c(c3)CCNC4)nc2n1-c1cccc(C(C)(C)C)c1` [Example 1.155], the IC50 in assay [1] (setting [3]) was 1980 nM; in assay [2], 2 nM.
For `CC(C)n1c(=O)c2cnc(Nc3ccc4c(c3)CNCC4)nc2n1-c1cccc(C(C)(C)C)c1` [Example 1.156], the IC50 was found to be 1770 nM in assay [1] (setting [3]) and 1 nM in assay [2].
With `C=CCn1c(=O)c2cnc(Nc3ccc4c(c3)CCNC4)nc2n1-c1ccnc(C(C)(C)C)c1` [Example 1.157], the IC50 in assay [1] (setting [3]) was found to be 460 nM; in assay [2], 5 nM.
As to `C=CCn1c(=O)c2cnc(Nc3ccc4c(c3)CNCC4)nc2n1-c1ccnc(C(C)(C)C)c1` [Example 1.158], the IC50 in assay [1] (setting [3]) was 200 nM; in assay [2], 4 nM.
As for `CC(C)(C)c1cc(-n2c3nc(Nc4ccc5c(c4)CCNC5)ncc3c(=O)n2C2CC2)ccn1` [Example 1.159], the IC50 in assay [1] (setting [3]) worked out at 3320 nM; in assay [2] it was 30 nM.
As for `CC(C)(C)c1cc(-n2c3nc(Nc4ccc5c(c4)CNCC5)ncc3c(=O)n2C2CC2)ccn1` [Example 1.160], the IC50 in assay [1] (setting [3]) came out at 3980 nM; in assay [2] it was 30 nM.
Regarding `CC(C)n1c(=O)c2cnc(Nc3ccc4c(c3)CCNC4)nc2n1-c1ccn(C(C)(C)C)n1` [Example 2.454], the IC50 in assay [2] amounted to 48 nM.
`CC(C)(F)c1cc(-n2c3nc(Nc4ccc5c(c4)CCNC5(C)C)ncc3c(=O)n2C2CC2)ccn1` [Example 2.555]: the IC50 in assay [2] worked out at 153 nM.
On to `CC(C)(C)c1cc(-n2c3nc(Nc4ccc5c(c4)CNCC5(C)C)ncc3c(=O)n2C2CC2)ccn1` [Example 2.600], for which the IC50 in assay [2] was found to be 25 nM.
For the compound `CC(C)n1c(=O)c2cnc(Nc3ccc4c(c3)CCNC4)cc2n1-c1ccnc(C(C)(C)C)c1` [Example 2.732], the concentration for half-maximal inhibition (IC50) in assay [2] was determined as 179 nM.
In the case of `CC(C)n1c(=O)c2cnc(Nc3ccc4c(c3)CNCC4)cc2n1-c1ccnc(C(C)(C)C)c1` [Example 2.744], the IC50 in assay [1] (setting [3]) worked out at 10400 nM.
